± gives the expanded uncertainty stated by the source.
Settings: 303.15 K, Liquid, Vibrating tube method

CCCCCCCC(=O)OCC(COC(=O)CCCCCCC)(COC(=O)CCCCCCC)COC(=O)CCCCCCC [pentaerythritol tetraoctanoate]
Settings	mass density [kg/m3]
7240.6 kPa	959.8 ± 1.2
7273.2 kPa	959.8 ± 1.2
7299.8 kPa	960 ± 1.2
7389.7 kPa	960 ± 1.2
7422.6 kPa	959.9 ± 1.2
7449.6 kPa	959.9 ± 1.2
7483.3 kPa	960 ± 1.2
7511.3 kPa	960 ± 1.2
7544.9 kPa	960 ± 1.2
7573.7 kPa	960.1 ± 1.2
7608.5 kPa	960.1 ± 1.2
7643.5 kPa	960.1 ± 1.2
7673.8 kPa	960.1 ± 1.2
7703.3 kPa	960.1 ± 1.2
7739.3 kPa	960.2 ± 1.2
7769.3 kPa	960.2 ± 1.2
7806.2 kPa	960.1 ± 1.2
7836.8 kPa	960.2 ± 1.2
7874 kPa	960.2 ± 1.2
7904.9 kPa	960.1 ± 1.2
7943.2 kPa	960.2 ± 1.2
8013.8 kPa	960.3 ± 1.2
8160.1 kPa	960.4 ± 1.2
8194.2 kPa	960.5 ± 1.2
8236.1 kPa	960.4 ± 1.2
8272 kPa	960.5 ± 1.2
8310.6 kPa	960.5 ± 1.2
8341.7 kPa	960.5 ± 1.2
8372.2 kPa	960.5 ± 1.2
8402.7 kPa	960.5 ± 1.2
8428.6 kPa	960.5 ± 1.2
8458.8 kPa	960.7 ± 1.2
8489.8 kPa	960.6 ± 1.2
8521.4 kPa	960.7 ± 1.2
8548.1 kPa	960.7 ± 1.2
8580.2 kPa	960.7 ± 1.2
8612.1 kPa	960.7 ± 1.2
8643.8 kPa	960.7 ± 1.2
8676.1 kPa	960.8 ± 1.2
8703.6 kPa	960.8 ± 1.2
8736.1 kPa	960.7 ± 1.2
8769.5 kPa	960.9 ± 1.2
8802.3 kPa	960.8 ± 1.2
8866 kPa	960.8 ± 1.2
8901.6 kPa	960.9 ± 1.2
8936.7 kPa	960.9 ± 1.2
8961.2 kPa	960.8 ± 1.2
8990.2 kPa	960.9 ± 1.2
9019.5 kPa	960.9 ± 1.2
9048.8 kPa	960.9 ± 1.2
9078.2 kPa	961 ± 1.2
9103.3 kPa	961 ± 1.2
9132.9 kPa	961.1 ± 1.2
9163.2 kPa	961 ± 1.2
9193.9 kPa	961.1 ± 1.2
9224.2 kPa	961 ± 1.2
9250.4 kPa	961.1 ± 1.2
9281.3 kPa	961 ± 1.2
9371.4 kPa	961.1 ± 1.2
9403.3 kPa	961.2 ± 1.2
9435.5 kPa	961.1 ± 1.2
9467.7 kPa	961.2 ± 1.2
9500.5 kPa	961.2 ± 1.2
9527.3 kPa	961.2 ± 1.2
9559.2 kPa	961.2 ± 1.2
9592.8 kPa	961.2 ± 1.2
9618.8 kPa	961.3 ± 1.2
9652.6 kPa	961.3 ± 1.2
9687 kPa	961.4 ± 1.2
9722.3 kPa	961.4 ± 1.2
9750.6 kPa	961.4 ± 1.2
9785.2 kPa	961.3 ± 1.2
9821.4 kPa	961.4 ± 1.2
9856.8 kPa	961.4 ± 1.2
9893.5 kPa	961.5 ± 1.2
9924.2 kPa	961.5 ± 1.2
9961.2 kPa	961.5 ± 1.2
9999 kPa	961.5 ± 1.2
10037 kPa	961.6 ± 1.2
10067 kPa	961.6 ± 1.2
10092 kPa	961.6 ± 1.2
10122 kPa	961.6 ± 1.2
10152 kPa	961.6 ± 1.2
10177 kPa	961.6 ± 1.2
10208 kPa	961.5 ± 1.2
10238 kPa	961.7 ± 1.2
10270 kPa	961.6 ± 1.2
10302 kPa	961.8 ± 1.2
10334 kPa	961.7 ± 1.2
10357 kPa	961.7 ± 1.2
10380 kPa	961.8 ± 1.2
10403 kPa	961.6 ± 1.2
10423 kPa	961.7 ± 1.2
10447 kPa	961.7 ± 1.2
10471 kPa	961.7 ± 1.2
10491 kPa	961.8 ± 1.2
10514 kPa	961.8 ± 1.2
10538 kPa	961.9 ± 1.2
10562 kPa	961.9 ± 1.2
10582 kPa	961.9 ± 1.2
10607 kPa	961.9 ± 1.2
10631 kPa	961.9 ± 1.2
10656 kPa	961.9 ± 1.2
10680 kPa	961.9 ± 1.2
10702 kPa	962 ± 1.2
10727 kPa	962 ± 1.2
10751 kPa	961.9 ± 1.2
10779 kPa	961.9 ± 1.2
10801 kPa	961.9 ± 1.2
10826 kPa	962 ± 1.2
10852 kPa	962.1 ± 1.2
10878 kPa	962.1 ± 1.2
10899 kPa	962 ± 1.2
10924 kPa	962.1 ± 1.2
10950 kPa	962.1 ± 1.2
10975 kPa	962.1 ± 1.2
10996 kPa	962.2 ± 1.2
11075 kPa	962.1 ± 1.2
11103 kPa	962.2 ± 1.2
11125 kPa	962.2 ± 1.2
11152 kPa	962.2 ± 1.2
11180 kPa	962.2 ± 1.2
11202 kPa	962.2 ± 1.2
11229 kPa	962.4 ± 1.2
11257 kPa	962.2 ± 1.2
11285 kPa	962.3 ± 1.2
11313 kPa	962.3 ± 1.2
11337 kPa	962.3 ± 1.2
11365 kPa	962.4 ± 1.2
11393 kPa	962.3 ± 1.2
11422 kPa	962.3 ± 1.2
11446 kPa	962.4 ± 1.2
11475 kPa	962.3 ± 1.2
11504 kPa	962.4 ± 1.2
11533 kPa	962.4 ± 1.2
11562 kPa	962.4 ± 1.2
11587 kPa	962.5 ± 1.2
11616 kPa	962.5 ± 1.2
11645 kPa	962.6 ± 1.2
11669 kPa	962.5 ± 1.2
11699 kPa	962.6 ± 1.2
11729 kPa	962.4 ± 1.2
11760 kPa	962.6 ± 1.2
11790 kPa	962.6 ± 1.2
11816 kPa	962.6 ± 1.2
11847 kPa	962.6 ± 1.2
11878 kPa	962.7 ± 1.2
11909 kPa	962.6 ± 1.2
11935 kPa	962.6 ± 1.2
11965 kPa	962.7 ± 1.2
11996 kPa	962.7 ± 1.2
12028 kPa	962.7 ± 1.2
12059 kPa	962.7 ± 1.2
12086 kPa	962.8 ± 1.2
12118 kPa	962.8 ± 1.2
12150 kPa	962.8 ± 1.2
12183 kPa	962.8 ± 1.2
12208 kPa	962.8 ± 1.2
12241 kPa	962.9 ± 1.2
12274 kPa	962.8 ± 1.2
12307 kPa	962.8 ± 1.2
12340 kPa	962.9 ± 1.2
12368 kPa	963 ± 1.2
12402 kPa	962.9 ± 1.2
12436 kPa	963 ± 1.2
12470 kPa	963.1 ± 1.2
12499 kPa	963.1 ± 1.2
12533 kPa	962.9 ± 1.2
12568 kPa	963 ± 1.2
12603 kPa	963 ± 1.2
12633 kPa	963.1 ± 1.2
12668 kPa	963.1 ± 1.2
12704 kPa	963.1 ± 1.2
12734 kPa	963.1 ± 1.2
12770 kPa	963.2 ± 1.2
12805 kPa	963.2 ± 1.2
12841 kPa	963.2 ± 1.2
12878 kPa	963.1 ± 1.2
12916 kPa	963.2 ± 1.2
12947 kPa	963.3 ± 1.2
12985 kPa	963.3 ± 1.2
13022 kPa	963.3 ± 1.2
13059 kPa	963.3 ± 1.2
13090 kPa	963.4 ± 1.2
13128 kPa	963.3 ± 1.2
13167 kPa	963.4 ± 1.2
13200 kPa	963.3 ± 1.2
13240 kPa	963.3 ± 1.2
13279 kPa	963.6 ± 1.2
13308 kPa	963.5 ± 1.2
13346 kPa	963.4 ± 1.2
13386 kPa	963.5 ± 1.2
13427 kPa	963.6 ± 1.2
13468 kPa	963.5 ± 1.2
13501 kPa	963.7 ± 1.2
13542 kPa	963.6 ± 1.2
13577 kPa	963.5 ± 1.2
13611 kPa	963.7 ± 1.2
13693 kPa	963.7 ± 1.2
13813 kPa	963.7 ± 1.2
13941 kPa	963.8 ± 1.2
13985 kPa	963.8 ± 1.2
14067 kPa	964 ± 1.2
14112 kPa	964 ± 1.2
14142 kPa	964 ± 1.2
14187 kPa	964 ± 1.2
14240 kPa	964.1 ± 1.2
14286 kPa	964.1 ± 1.2
14332 kPa	964.1 ± 1.2
14371 kPa	964.1 ± 1.2
14417 kPa	964.1 ± 1.2
14464 kPa	964.1 ± 1.2
14512 kPa	964.2 ± 1.2
14551 kPa	964.1 ± 1.2
14598 kPa	964.1 ± 1.2
14647 kPa	964.2 ± 1.2
14697 kPa	964.3 ± 1.2
14737 kPa	964.2 ± 1.2
14787 kPa	964.4 ± 1.2
14836 kPa	964.4 ± 1.2
14887 kPa	964.3 ± 1.2
14930 kPa	964.3 ± 1.2
14981 kPa	964.5 ± 1.2
15031 kPa	964.5 ± 1.2
15083 kPa	964.5 ± 1.2
15135 kPa	964.5 ± 1.2
15179 kPa	964.6 ± 1.2
15234 kPa	964.6 ± 1.2
15288 kPa	964.5 ± 1.2
15341 kPa	964.7 ± 1.2
15388 kPa	964.7 ± 1.2
15447 kPa	964.7 ± 1.2
15495 kPa	964.8 ± 1.2
15554 kPa	964.8 ± 1.2
15616 kPa	964.9 ± 1.2
15669 kPa	964.9 ± 1.2
15728 kPa	964.9 ± 1.2
15758 kPa	964.9 ± 1.2
15786 kPa	964.9 ± 1.2
15815 kPa	965 ± 1.2
15840 kPa	964.9 ± 1.2
15869 kPa	964.9 ± 1.2
15894 kPa	964.9 ± 1.2
15923 kPa	964.9 ± 1.2
15952 kPa	965.1 ± 1.2
15978 kPa	965 ± 1.2
16008 kPa	965.1 ± 1.2
16032 kPa	965.1 ± 1.2
16062 kPa	965.2 ± 1.2
16092 kPa	965.1 ± 1.2
16117 kPa	965.2 ± 1.2
16148 kPa	965.1 ± 1.2
16173 kPa	965.1 ± 1.2
16205 kPa	965.1 ± 1.2
16230 kPa	965.1 ± 1.2
16261 kPa	965.2 ± 1.2
16288 kPa	965.2 ± 1.2
16319 kPa	965.2 ± 1.2
16349 kPa	965.2 ± 1.2
16375 kPa	965.3 ± 1.2
16407 kPa	965.4 ± 1.2
16433 kPa	965.3 ± 1.2
16465 kPa	965.2 ± 1.2
16496 kPa	965.2 ± 1.2
16523 kPa	965.3 ± 1.2
16556 kPa	965.3 ± 1.2
16586 kPa	965.4 ± 1.2
16613 kPa	965.4 ± 1.2
16645 kPa	965.4 ± 1.2
16672 kPa	965.4 ± 1.2
16704 kPa	965.3 ± 1.2
16737 kPa	965.5 ± 1.2
16764 kPa	965.4 ± 1.2
16798 kPa	965.5 ± 1.2
16825 kPa	965.4 ± 1.2
16853 kPa	965.5 ± 1.2
16875 kPa	965.6 ± 1.2
16908 kPa	965.6 ± 1.2
16952 kPa	965.6 ± 1.2
16982 kPa	965.7 ± 1.2
17016 kPa	965.6 ± 1.2
17044 kPa	965.6 ± 1.2
17078 kPa	965.6 ± 1.2
17112 kPa	965.7 ± 1.2
17141 kPa	965.7 ± 1.2
17175 kPa	965.7 ± 1.2
17209 kPa	965.7 ± 1.2
17238 kPa	965.9 ± 1.2
17272 kPa	965.8 ± 1.2
17302 kPa	965.9 ± 1.2
17339 kPa	965.8 ± 1.2
17367 kPa	965.9 ± 1.2
17402 kPa	965.8 ± 1.2
17434 kPa	965.9 ± 1.2
17468 kPa	965.9 ± 1.2
17504 kPa	966 ± 1.2

— the NIST ThermoML archive (doi:10.1021/je060271a)
